Test results reported in patent publication US20210395256A1, “TYROSINE KINASE INHIBITORS, COMPOSITIONS AND METHODS THERE OF” (Betta Pharmaceuticals Co., Ltd., priority 2018, published 2021).
Where two headings read alike, the source gives them in different places.

Tests used:
[1] = Liver microsomes metabolic stability assay, mouse; type: in vitro ADME; settings: male, mouse liver microsomes 0.5 mg/mL, 37° C.; for half-life at 2 μM: read-out: t1/2 Mouse
In short: (§1)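 Pooled human, male rat or male mouse liver microsomes (0.5 mg/mL final) incubated at 37° C with 2 μM compound, with or without 1 mM NADPH. Samples at 0-60 min quenched in cold acetonitrile and analyzed by LC-MS/MS in duplicate. t1/2 derived from ln(% remaining) vs time slope, converted to CLint (μL/min/mg).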

[2] = Liver microsomes metabolic stability assay, rat; type: in vitro ADME; settings: male, rat liver microsomes 0.5 mg/mL, 37° C.; for half-life at 2 μM: read-out: t1/2 Rat
In short: as §1

[3] = Liver microsomes metabolic stability assay, human; type: in vitro ADME; settings: human liver microsomes 0.5 mg/mL, 37° C.; for half-life at 2 μM: read-out: t1/2 Human
In short: as §1

[4] = biological target: TrkA kinase (Homo sapiens, UniProt P04629); assay: TrkA kinase assay (mobility shift assay); type: biochemical; settings: read-out: Trk A Kinase IC50
Sequence of TrkA kinase (P04629 33-796): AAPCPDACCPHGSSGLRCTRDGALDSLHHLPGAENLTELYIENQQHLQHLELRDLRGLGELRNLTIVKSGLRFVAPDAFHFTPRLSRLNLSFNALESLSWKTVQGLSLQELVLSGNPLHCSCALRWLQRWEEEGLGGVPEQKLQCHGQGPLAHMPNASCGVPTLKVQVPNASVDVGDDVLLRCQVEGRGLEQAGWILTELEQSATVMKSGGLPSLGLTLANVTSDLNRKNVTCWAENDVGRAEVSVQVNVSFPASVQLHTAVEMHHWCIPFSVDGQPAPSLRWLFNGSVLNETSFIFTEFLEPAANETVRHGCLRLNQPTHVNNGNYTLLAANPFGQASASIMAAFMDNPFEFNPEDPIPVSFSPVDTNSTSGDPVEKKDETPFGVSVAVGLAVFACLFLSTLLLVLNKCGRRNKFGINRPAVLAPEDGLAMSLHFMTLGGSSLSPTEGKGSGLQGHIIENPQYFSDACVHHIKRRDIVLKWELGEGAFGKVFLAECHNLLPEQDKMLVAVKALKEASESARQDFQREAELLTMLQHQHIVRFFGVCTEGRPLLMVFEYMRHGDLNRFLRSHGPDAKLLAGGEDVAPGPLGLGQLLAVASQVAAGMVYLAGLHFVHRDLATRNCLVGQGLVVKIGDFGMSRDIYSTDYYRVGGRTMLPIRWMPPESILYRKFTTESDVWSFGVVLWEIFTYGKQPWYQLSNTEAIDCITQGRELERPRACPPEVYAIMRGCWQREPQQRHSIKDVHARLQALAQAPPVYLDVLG
In short: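 Ten-point compound series was preincubated 10 min at room temperature with TrkA, then FAM-peptide plus ATP added in HEPES pH 7.5/Brij-35 buffer and reacted at 28 °C before EDTA quench.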

Row | SMILES | microsomal CLint at 2 μM [1] [µL/min/mg] | half-life at 2 μM [1] [min] | microsomal CLint at 2 μM [2] [µL/min/mg] | half-life at 2 μM [2] [min] | microsomal CLint at 2 μM [3] [µL/min/mg] | half-life at 2 μM [3] [min] | IC50 ([4]; numeric values) [nM] | IC50 ([4]; class symbols) [nM]
1 | Cc1nnc(-c2cnn3ccc(N4CCCC4c4cc(F)ccc4F)nc23)[nH]1 (centres unmarked) [Comparative compound A, 5-[2-(2,5-Difluorophenyl)pyrrolidin-1-yl]-3-(5-methyl-1H-1,2,4-triazol-3-yl)pyrazolo[1,5-a]pyrimidine, reference compound] | 214 | 6.47 | 78.5 | 17.7 | 108 | 12.8 | – | –
2 | CC(C)(O)Cc1nnc(-c2cnn3ccc(N4CCC[C@@H]4c4cc(F)ccc4F)nc23)[nH]1 [Compound 30, (R)-1-(5-(5-(2-(2,5-difluorophenyl)pyrrolidin-1-yl)pyrazolo[1,5-a]pyrimidin-3-yl)-4H-1,2,4-triazol-3-yl)-2-methylpropan-2-ol] | 35.6 | 38.9 | 69.6 | 19.9 | 16.8 | 82.7 | 4.9 | –
3 | C[C@H](N)c1nnc(-c2cnn3ccc(N4CCC[C@@H]4c4cc(F)ccc4F)nc23)[nH]1 [Compound 11, (S)-1-(5-(5-((R)-2-(2,5-difluorophenyl)pyrrolidin-1-yl)pyrazolo[1,5-a]pyrimidin-3-yl)-4H-1,2,4-triazol-3-yl)ethan-1-amine] | 61.9 | – | 5.23 | – | 4.27 | – | – | ≤ 10
4 | OC(c1nnc(-c2cnn3ccc(N4CCC[C@@H]4c4cc(F)ccc4F)nc23)[nH]1)C(F)(F)F (stereo partly drawn) [Compound 47, 1-(5-(5-((R)-2-(2,5-difluorophenyl)pyrrolidin-1-yl)pyrazolo[1,5-a]pyrimidin-3-yl)-4H-1,2,4-triazol-3-yl)-2,2,2-trifluoroethan-1-ol] | – | – | – | – | – | – | 3.23 | –
5 | OC1CC(c2nnc(-c3cnn4ccc(N5CCC[C@@H]5c5cc(F)ccc5F)nc34)[nH]2)C1 (stereo partly drawn) [Compound 31, (R)-3-(5-(5-(2-(2,5-difluorophenyl)pyrrolidin-1-yl)pyrazolo[1,5-a]pyrimidin-3-yl)-4H-1,2,4-triazol-3-yl)cyclobutan-1-ol] | 37 | 37.4 | 69.1 | 20.1 | 16.4 | 84.6 | 2.3 | –

The remaining compounds from weak to strong by IC50 ([4]; numeric values), led by results:

Row | microsomal CLint at 2 μM [1] [µL/min/mg] | half-life at 2 μM [1] [min] | microsomal CLint at 2 μM [2] [µL/min/mg] | half-life at 2 μM [2] [min] | microsomal CLint at 2 μM [3] [µL/min/mg] | half-life at 2 μM [3] [min] | IC50 ([4]; numeric values) [nM] | IC50 ([4]; class symbols) [nM] | SMILES
6 | 48.6 | 28.5 | 50 | 27.7 | 9.36 | 148 | 2.3 | – | OC1(c2nnc(-c3cnn4ccc(N5CCC[C@@H]5c5cc(F)ccc5F)nc34)[nH]2)CCC1 [Compound 23, (R)-1-(5-(5-(2-(2,5-difluorophenyl)pyrrolidin-1-yl)pyrazolo[1,5-a]pyrimidin-3-yl)-4H-1,2,4-triazol-3-yl)cyclobutan-1-ol]
7 | 96.4 | 14.4 | 29.3 | 47.3 | 20.4 | 67.9 | 1.37 | – | C[C@H](O)c1nnc(-c2cnn3ccc(N4CCC[C@@H]4c4cc(F)ccc4F)nc23)[nH]1 [Compound 4, (S)-1-(5-(5-((R)-2-(2,5-difluorophenyl)pyrrolidin-1-yl)pyrazolo[1,5-a]pyrimidin-3-yl)-4H-1,2,4-triazol-3-yl)ethan-1-ol]
8 | 41.4 | 33.5 | 80.2 | 17.3 | 17.2 | 80.6 | 1.26 | – | C[C@@H](CO)c1nnc(-c2cnn3ccc(N4CCC[C@@H]4c4cc(F)ccc4F)nc23)[nH]1 [Compound 39, (R)-2-(5-(5-((R)-2-(2,5-difluorophenyl)pyrrolidin-1-yl)pyrazolo[1,5-a]pyrimidin-3-yl)-4H-1,2,4-triazol-3-yl)propan-1-ol]
9 | 19.4 | 71.5 | 25.3 | 54.9 | 11.1 | 124 | 0.68 | – | CC(C)(O)c1nnc(-c2cnn3ccc(N4CCC[C@@H]4c4cc(F)ccc4F)nc23)[nH]1 [Compound 7, (R)-2-(5-(5-(2-(2,5-difluorophenyl)pyrrolidin-1-yl)pyrazolo[1,5-a]pyrimidin-3-yl)-4H-1,2,4-triazol-3-yl)propan-2-ol]
